In one data set the target is T1, SARS-CoV-2 PLpro (Severe acute respiratory syndrome coronavirus 2, UniProt P0DTD1).
T1 construct: containing 60 nM papain-like protease
The data set is described as follows: biochemical. The settings on record: 60 nM papain-like protease, 50 μM Z-RLRGG-AMC, pH 7.5, 37° C.; read-out: SARS-CoV-2 PLpro IC50.

Data set [1] has as its system human Hep G2 cells (ATCC HB-8065). The data set can be described thus: Cytotoxicity in Hep G2 cells (CellTiter-Glo). In kind it is cell-based. Conditions: Hep G2 cells, 100 μM test article, 24-hour exposure.
The test system of a further data set is SARS-CoV-2. The data set can be described thus: Anti-viral potency in VERO E6 cells (cytopathic viral activity, crystal violet). In kind it is cell-based. Conditions: Severe acute respiratory syndrome coronavirus 2, Vero C1008, 48 h, read-out: SARS-COV-2 EC50 (μM). Background: Cytopathic effects are the visible damage that an infection or toxin causes in cultured cells.

Structures are written as SMILES. Counter-ions that a name gives are not always drawn. Where only a bound is given, the exact number is not on record here.

One may read the IC50 as the concentration at which inhibition is half-maximal. In general, EC50 refers to the concentration that produces a half-maximal response. For the molecule `Cc1ccc(N2CCN(C)CC2)cc1C(=O)N[C@H](C)c1ccc(Cl)c(-c2cnn(C)c2)c1` [Example 252, N-[(1R)-1-[4-Chloro-3-(1-methylpyrazol-4-yl)phenyl]ethyl]-2-methyl-5-(4-methylpiperazin-1-yl)benzamide], the IC50 at SARS-CoV-2 PLpro was under 2000 nM. Further, the “% Cell Viability” value in data set [1] turned out to be 49.4%. Further, the concentration giving a half-maximal response (EC50) with SARS-CoV-2 was under 5 µM.
Consider `COc1ccc([C@@H](C)NC(=O)c2cc(N3CCNCC3)ccc2C)cc1-c1cnn(C)c1` [Example 260, N-[(1R)-1-[4-Methoxy-3-(1-methylpyrazol-4-yl)phenyl]ethyl]-2-methyl-5-piperazin-1-yl-benzamide], for which the IC50 on SARS-CoV-2 PLpro is under 2000 nM. For the same molecule, the “% Cell Viability” value in data set [1] was 91.1%. Also, the EC50 with SARS-CoV-2 was under 15 µM.
For the molecule `COc1cc(-c2cnn(C)c2)cc([C@@H](C)NC(=O)c2cc(N3CCN(C)CC3)ccc2C)c1` [Example 219, N-[(1R)-1-[3-Methoxy-5-(1-methylpyrazol-4-yl)phenyl]ethyl]-2-methyl-5-(4-methylpiperazin-1-yl)benzamide], on SARS-CoV-2 PLpro, the IC50 is under 2000 nM. For the same molecule, the EC50 with SARS-CoV-2 is under 5 µM.
`COc1cc(-c2cnn(C)c2)cc([C@@H](C)NC(=O)c2cc(N3CCNCC3)ccc2C)c1` [Example 235, N-[(1R)-1-[3-Methoxy-5-(1-methylpyrazol-4-yl)phenyl]ethyl]-2-methyl-5-piperazin-1-yl-benzamide]: on SARS-CoV-2 PLpro, the 50% inhibitory concentration (IC50) was under 2000 nM. Besides, the “% Cell Viability” value in data set [1] worked out at 90.6%. Besides, the EC50 in the data set on SARS-CoV-2 was under 5 µM.
On the same counts, the results for `Cc1ccc(N2CCN(C)CC2)cc1C(=O)N[C@H](C)c1cccc(-c2cc(C(=O)N(C)C)n(C)c2)c1` [Example 102, N,N,1-Trimethyl-4-[3-[(1R)-1-[[2-methyl-5-(4-methylpiperazin-1-yl)benzoyl]amino]ethyl]phenyl]pyrrole-2-carboxamide] are under 2000 nM, 75.9% and under 5 µM.
For `COc1ccc([C@@H](C)NC(=O)c2cc(C3CCN(C)CC3)ccc2C)cc1-c1cnn(C)c1` [Example 300, N-[(1R)-1-[4-Methoxy-3-(1-methylpyrazol-4-yl)phenyl]ethyl]-2-methyl-5-(1-methyl-4-piperidyl)benzamide], in that order: under 2000 nM, 74.7% and under 5 µM.
Regarding `COCCOc1ccc([C@@H](C)NC(=O)c2cc(N3CCN(C)CC3)ccc2C)cc1-c1cnn(C)c1` [Example 280, N-[(1R)-1-[4-(2-Methoxyethoxy)-3-(1-methylpyrazol-4-yl)phenyl]ethyl]-2-methyl-5-(4-methylpiperazin-1-yl)benzamide], the IC50 at SARS-CoV-2 PLpro was under 2000 nM. Also, the “% Cell Viability” value in data set [1] worked out at 76.7%. Besides, in the data set with SARS-CoV-2, the 50% effective concentration (EC50) was under 5 µM.
For `COc1cc(-c2cn(C)nc2C)cc([C@@H](C)NC(=O)c2cc(N3C[C@H]4C[C@@H]3CN4C)ccc2C)c1` [Example 230, N-[(1R)-1-[3-(1,3-Dimethylpyrazol-4-yl)-5-methoxy-phenyl]ethyl]-2-methyl-5-[(1R,4R)-5-methyl-2,5-diazabicyclo[2.2.1]heptan-2-yl]benzamide], in that order: under 2000 nM, 38.3% and under 5 µM.
On the same counts, the results for `COc1ccc([C@@H](C)NC(=O)c2cc(N3CCN(C)CC3)ccc2C)cc1-c1nccs1` [Example 251, N-[(1R)-1-(4-Methoxy-3-thiazol-2-yl-phenyl)ethyl]-2-methyl-5-(4-methylpiperazin-1-yl)benzamide] are under 2000 nM, 63.2% and under 5 µM.
For `COc1cc(-c2cc(C(=O)N(C)C)n(C)c2)cc([C@@H](C)NC(=O)c2cc(N3CCN(C)CC3)ccc2C)c1` [Example 289, 4-[3-Methoxy-5-[(1R)-1-[[2-methyl-5-(4-methylpiperazin-1-yl)benzoyl]amino]ethyl]phenyl]-N,N,1-trimethyl-pyrrole-2-carboxamide], in that order: under 2000 nM, 59.5% and under 5 µM.
For the molecule `Cc1ccc(N2CCN(C)CC2)cc1C(=O)N[C@H](C)c1ccc(OC(F)(F)F)c(Br)c1` [Example 190, N-[(1R)-1-[3-Bromo-4-(trifluoromethoxy)phenyl]ethyl]-2-methyl-5-(4-methylpiperazin-1-yl)benzamide], the IC50 at SARS-CoV-2 PLpro is under 5000 nM. For the same molecule, the “% Cell Viability” value in data set [1] is reported as 0.9%.
For `Cc1ccc(N2CCN(C)CC2)cc1C(=O)N[C@H](C)c1cccc(-c2ccc(Cl)cc2)c1` [Example 55, N-[(1R)-1-[3-(4-Chlorophenyl)phenyl]ethyl]-2-methyl-5-(4-methylpiperazin-1-yl)benzamide], in that order: under 2000 nM and 1.0%.
For `Cc1ccc(N2CCN(C)CC2)cc1C(=O)N[C@H](C)c1cccc(N2CCN(CCC(=O)O)CC2)c1` [Example 166, 3-[4-[3-[(1R)-1-[[2-Methyl-5-(4-methylpiperazin-1-yl)benzoyl]amino]ethyl]phenyl]piper-azin-1-yl]propanoic acid], in that order: under 10000 nM and 100.9%.
On the same counts, the results for `COc1ccc([C@@H](C)NC(=O)c2cc(N3CCN(C)CC3)ccc2C)cc1OCCN` [Example 295, N-[(1R)-1-[3-(2-Aminoethoxy)-4-methoxy-phenyl]ethyl]-2-methyl-5-(4-methylpiperazin-1-yl)benzamide Dihydrochloride Salt] are under 10000 nM and 107.9%.
With `Cc1ccc(N2CCN(C)CC2)cc1C(=O)N[C@H](C)c1cccc(-c2cccc(C(=O)N3CCCCC3)c2)c1` [Example 91, 2-Methyl-5-(4-methylpiperazin-1-yl)-N-[(1R)-1-[3-[3-(piperidine-1-carbonyl)phenyl]phenyl]ethyl]benzamide], the IC50 at SARS-CoV-2 PLpro was under 2000 nM. Moreover, the “% Cell Viability” value in data set [1] is reported as 27.1%.
On the same counts, the results for `COc1ccc([C@@H](C)NC(=O)c2cc(N3CCN(C)CC3)ccc2C)cc1C1CCN(CCC(=O)O)CC1` [Example 238, 3-[4-[2-Methoxy-5-[(1R)-1-[[2-methyl-5-(4-methylpiperazin-1-yl)benzoyl]amino]ethyl]phenyl]-1-piperidyl]propanoic Acid] are under 10000 nM and 119.7%.
For `Cc1ccc(N2CCN(C)CC2)cc1C(=O)N[C@H](C)c1cccc(-c2ccccc2CO)c1` [Example 80, N-[(1R)-1-[3-[2-(Hydroxymethyl)phenyl]phenyl]ethyl]-2-methyl-5-(4-methylpiperazin-1-yl)benzamide], in that order: under 2000 nM and 79.5%.
Turning to `COc1ccc([C@@H](C)NC(=O)c2cc(N3CCN(C)CC3)ccc2C)cc1-c1ccncc1` [Example 211, N-[(1R)-1-[4-Methoxy-3-(4-pyridyl)phenyl]ethyl]-2-methyl-5-(4-methylpiperazin-1-yl)benzamide], the IC50 on SARS-CoV-2 PLpro is under 2000 nM. For the same molecule, the “% Cell Viability” value in data set [1] came to 86.0%.
For `COc1ccc([C@@H](C)NC(=O)c2cc(N3CCN(C)CC3)ccc2C)cc1-c1cn[nH]c1` [Example 214, N-[(1R)-1-[4-Methoxy-3-(1H-pyrazol-4-yl)phenyl]ethyl]-2-methyl-5-(4-methylpiperazin-1-yl)benzamide], in that order: under 2000 nM and 101.2%.
As for `Cc1ccc(N2CCN(C)CC2)cc1C(=O)N[C@H](C)c1cccc(-c2ccc(N3CCNCC3)cc2)c1` [Example 73, 2-Methyl-5-(4-methylpiperazin-1-yl)-N-[(1R)-1-[3-(4-piperazin-1-ylphenyl)phenyl]ethyl]benzamide dihydrochloride salt], the IC50 on SARS-CoV-2 PLpro was under 2000 nM. Further, the “% Cell Viability” value in data set [1] is listed as 0.6%.
For `Cc1ccc(N2CCN(C)CC2)cc1C(=O)N[C@H](C)c1cccc(-c2cccc(C(O)CO)c2)c1` (stereo partly drawn) [Example 71, N-[(1R)-1-[3-[3-(1,2-Dihydroxyethyl)phenyl]phenyl]ethyl]-2-methyl-5-(4-methylpiperazin-1-yl)benzamide], in that order: under 2000 nM and 68.4%.
On the same counts, the results for `COc1cc(-c2cn(C)nc2C)cc([C@@H](C)NC(=O)c2cc(N3CCNC4(CC4)C3)ccc2C)c1` [Example 267, 5-(4,7-Diazaspiro[2.5]octan-7-yl)-N-[(1R)-1-[3-(1,3-dimethylpyrazol-4-yl)-5-methoxy-phenyl]ethyl]-2-methyl-benzamide] are under 2000 nM and 81.0%.
On the same counts, the results for `COc1ccc([C@@H](C)NC(=O)c2cc(N3CCNC4(CC4)C3)ccc2C)cc1-c1cnn(C)c1` [Example 241, 5-(4,7-Diazaspiro[2.5]octan-7-yl)-N-[(1R)-1-[4-methoxy-3-(1-methylpyrazol-4-yl)phenyl]ethyl]-2-methyl-benzamide] are under 5000 nM and 84.2%.
With `Cc1ccc(N2CCN(C)CC2)cc1C(=O)N[C@H](C)c1cccc(-c2cccc(C(C)(C)O)c2)c1` [Example 45, N-[(1R)-1-[3-[3-(1-Hydroxy-1-methyl-ethyl)phenyl]phenyl]ethyl]-2-methyl-5-(4-methylpiperazin-1-yl)benzamide], the IC50 on SARS-CoV-2 PLpro is under 2000 nM. Moreover, the “% Cell Viability” value in data set [1] worked out at 59.5%.
On the same counts, the results for `Cc1ccc(N2CCN(C)CC2)cc1C(=O)N[C@H](C)c1cccc(-c2ccccc2)c1` [Example 27, 2-Methyl-5-(4-methylpiperazin-1-yl)-N-[(1R)-1-(3-phenylphenyl)ethyl]benzamide] are under 2000 nM and 1.0%.
As to `COc1ccc([C@@H](C)NC(=O)c2cc(N3CCN(C)CC3)ccc2C)cc1-c1ccn(C)n1` [Example 207, N-[(1R)-1-[4-Methoxy-3-(1-methylpyrazol-3-yl)phenyl]ethyl]-2-methyl-5-(4-methylpiperazin-1-yl)benzamide], the IC50 at SARS-CoV-2 PLpro is under 2000 nM. Moreover, the “% Cell Viability” value in data set [1] worked out at 103.7%.

The values above are taken from patent US20240383852A1, “ANTI-VIRAL COMPOUNDS” (INFEX Therapeutics Limited, priority 2021, published 2024).
